This is an account of results in paper PMC10869644 (Molecular plant, 2024).

This assay has as its target T1, ABA2 (ABA DEFICIENT 2) (Arabidopsis thaliana, UniProt Q9C826).
T1 sequence (Q9C826 1-285 limits assumed): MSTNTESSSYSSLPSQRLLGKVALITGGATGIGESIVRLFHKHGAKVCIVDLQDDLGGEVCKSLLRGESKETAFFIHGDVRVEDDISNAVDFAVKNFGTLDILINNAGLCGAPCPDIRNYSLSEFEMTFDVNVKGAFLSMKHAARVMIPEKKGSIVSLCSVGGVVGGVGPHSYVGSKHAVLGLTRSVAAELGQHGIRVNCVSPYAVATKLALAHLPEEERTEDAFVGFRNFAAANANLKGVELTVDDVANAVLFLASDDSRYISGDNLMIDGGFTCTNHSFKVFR
Put plainly: NADH formation at A340, dehydrogenase activity. It counts as biochemical. To be noted: 500 μM NAD+, 30 mM 3,5,5′-trimethylcyclohexanol, 100 mM K2HPO4 pH 7.2, 25°C; noncompetitive.

In the case of di-18:1-PA, the “% decrease of activity (2 μg lipid)” value amounted to 75%.
